Data published in BindingDB's records for doi:10.1124/jpet.102.034249 (Sanofi-Synthelabo Recherche, 2002).

Assays:
[1] = target: 5-hydroxytryptamine receptor 4 (Homo sapiens, UniProt Q13639)
[2] = target: 5-hydroxytryptamine receptor 1D (Homo sapiens, UniProt P28221)
[3] = target: 5-hydroxytryptamine receptor 6 (Homo sapiens, UniProt P50406)
[4] = target: 5-hydroxytryptamine receptor 1B (Homo sapiens, UniProt P28222)
[5] = target: 5-hydroxytryptamine receptor 5A (Homo sapiens, UniProt P47898)
[6] = target: T1, 5-hydroxytryptamine receptor 1A (Homo sapiens, UniProt P08908)
T1 sequence (P08908 whole entry): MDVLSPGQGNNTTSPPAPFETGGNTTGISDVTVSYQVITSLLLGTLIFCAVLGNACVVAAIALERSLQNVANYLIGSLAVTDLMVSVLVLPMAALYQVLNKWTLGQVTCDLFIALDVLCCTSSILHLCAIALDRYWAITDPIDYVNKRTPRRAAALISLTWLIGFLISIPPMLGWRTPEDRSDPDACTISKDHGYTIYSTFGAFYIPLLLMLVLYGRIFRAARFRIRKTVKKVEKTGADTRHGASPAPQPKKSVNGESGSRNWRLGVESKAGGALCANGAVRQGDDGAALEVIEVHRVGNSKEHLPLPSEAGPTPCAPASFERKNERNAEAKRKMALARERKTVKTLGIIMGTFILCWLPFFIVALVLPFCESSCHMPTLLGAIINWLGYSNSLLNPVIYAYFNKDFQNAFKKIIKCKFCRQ

[7] = target: T2, 5-hydroxytryptamine receptor 3A (Homo sapiens, UniProt P46098)
T2 sequence (P46098 whole entry): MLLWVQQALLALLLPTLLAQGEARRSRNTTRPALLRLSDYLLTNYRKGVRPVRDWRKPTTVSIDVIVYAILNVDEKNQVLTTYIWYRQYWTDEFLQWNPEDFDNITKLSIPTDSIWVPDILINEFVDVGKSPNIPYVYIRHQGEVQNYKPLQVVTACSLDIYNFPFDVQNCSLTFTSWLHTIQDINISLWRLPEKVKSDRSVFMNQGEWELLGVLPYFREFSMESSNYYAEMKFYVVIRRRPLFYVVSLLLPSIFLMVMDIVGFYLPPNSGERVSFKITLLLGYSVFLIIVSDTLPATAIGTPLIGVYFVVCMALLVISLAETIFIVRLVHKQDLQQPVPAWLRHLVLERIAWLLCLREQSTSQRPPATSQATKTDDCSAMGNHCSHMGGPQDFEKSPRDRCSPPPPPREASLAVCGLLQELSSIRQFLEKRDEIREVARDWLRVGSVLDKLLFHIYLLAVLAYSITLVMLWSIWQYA

[8] = target: 5-hydroxytryptamine receptor 2B (Homo sapiens, UniProt P41595)
[9] = target: 5-hydroxytryptamine receptor 2A (Homo sapiens, UniProt P28223)
[10] = target: T3, 5-hydroxytryptamine receptor 2C (Homo sapiens, UniProt P28335)
T3 sequence (P28335 whole entry): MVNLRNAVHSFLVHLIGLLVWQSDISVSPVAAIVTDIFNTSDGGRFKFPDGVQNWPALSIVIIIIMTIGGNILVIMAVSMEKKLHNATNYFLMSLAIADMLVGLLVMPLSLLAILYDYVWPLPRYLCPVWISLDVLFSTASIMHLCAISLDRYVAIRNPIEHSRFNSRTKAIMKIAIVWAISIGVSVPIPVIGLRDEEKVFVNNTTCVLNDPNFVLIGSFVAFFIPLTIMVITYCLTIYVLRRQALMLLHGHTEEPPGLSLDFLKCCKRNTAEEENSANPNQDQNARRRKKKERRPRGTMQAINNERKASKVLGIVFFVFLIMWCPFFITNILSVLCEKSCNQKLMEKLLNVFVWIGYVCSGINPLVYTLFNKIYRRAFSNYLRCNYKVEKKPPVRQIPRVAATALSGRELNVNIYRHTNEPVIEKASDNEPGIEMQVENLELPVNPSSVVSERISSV

[11] = target: 5-hydroxytryptamine receptor 7 (Homo sapiens, UniProt P34969)
5-hydroxytryptamine receptor 7, sequence (P34969 whole entry): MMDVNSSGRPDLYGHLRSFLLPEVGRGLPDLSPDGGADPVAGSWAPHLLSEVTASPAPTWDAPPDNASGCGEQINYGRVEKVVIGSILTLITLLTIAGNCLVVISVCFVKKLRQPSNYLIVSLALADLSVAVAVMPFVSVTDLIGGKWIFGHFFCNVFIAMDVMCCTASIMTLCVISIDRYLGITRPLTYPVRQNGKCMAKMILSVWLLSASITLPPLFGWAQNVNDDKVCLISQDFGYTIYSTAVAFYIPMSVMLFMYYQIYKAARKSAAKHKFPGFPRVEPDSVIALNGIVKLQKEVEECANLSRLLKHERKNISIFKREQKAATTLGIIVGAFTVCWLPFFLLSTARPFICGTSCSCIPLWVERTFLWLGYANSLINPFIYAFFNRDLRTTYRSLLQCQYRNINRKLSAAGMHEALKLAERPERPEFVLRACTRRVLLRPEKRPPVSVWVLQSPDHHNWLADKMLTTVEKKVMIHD

5-hydroxytryptamine receptor 2B, sequence (P41595 whole entry): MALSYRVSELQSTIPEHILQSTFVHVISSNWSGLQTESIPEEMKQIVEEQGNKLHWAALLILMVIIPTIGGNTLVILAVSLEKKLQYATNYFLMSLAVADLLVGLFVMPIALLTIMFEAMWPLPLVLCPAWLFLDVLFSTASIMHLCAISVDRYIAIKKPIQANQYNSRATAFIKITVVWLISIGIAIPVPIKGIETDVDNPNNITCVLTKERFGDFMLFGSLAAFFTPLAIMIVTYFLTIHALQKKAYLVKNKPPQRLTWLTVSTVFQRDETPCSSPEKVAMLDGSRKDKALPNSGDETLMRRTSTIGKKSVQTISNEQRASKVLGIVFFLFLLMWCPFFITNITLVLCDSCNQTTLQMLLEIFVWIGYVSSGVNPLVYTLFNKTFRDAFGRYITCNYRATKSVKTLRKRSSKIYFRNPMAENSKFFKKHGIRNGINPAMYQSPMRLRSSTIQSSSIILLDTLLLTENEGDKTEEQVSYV
5-hydroxytryptamine receptor 4, sequence (Q13639 whole entry): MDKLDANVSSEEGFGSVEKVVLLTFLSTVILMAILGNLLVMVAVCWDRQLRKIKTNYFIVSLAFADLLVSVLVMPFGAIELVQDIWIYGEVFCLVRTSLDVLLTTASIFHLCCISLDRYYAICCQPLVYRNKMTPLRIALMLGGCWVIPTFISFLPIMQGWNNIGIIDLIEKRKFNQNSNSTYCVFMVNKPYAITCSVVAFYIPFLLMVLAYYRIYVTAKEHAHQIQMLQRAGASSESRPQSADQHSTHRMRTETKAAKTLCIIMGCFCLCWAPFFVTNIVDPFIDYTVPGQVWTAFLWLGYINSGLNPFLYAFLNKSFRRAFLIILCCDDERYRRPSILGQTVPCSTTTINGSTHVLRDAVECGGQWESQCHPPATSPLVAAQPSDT
5-hydroxytryptamine receptor 1B, sequence (P28222 whole entry): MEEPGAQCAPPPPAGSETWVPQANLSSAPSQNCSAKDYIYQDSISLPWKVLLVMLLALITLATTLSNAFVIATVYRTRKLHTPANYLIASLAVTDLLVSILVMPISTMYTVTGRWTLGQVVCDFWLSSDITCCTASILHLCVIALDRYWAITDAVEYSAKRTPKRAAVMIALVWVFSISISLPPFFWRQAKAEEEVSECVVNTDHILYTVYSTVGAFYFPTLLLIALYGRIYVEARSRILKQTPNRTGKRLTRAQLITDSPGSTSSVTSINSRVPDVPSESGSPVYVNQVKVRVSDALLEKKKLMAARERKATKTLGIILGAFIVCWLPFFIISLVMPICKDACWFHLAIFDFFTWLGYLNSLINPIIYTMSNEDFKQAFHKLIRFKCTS
5-hydroxytryptamine receptor 2A, sequence (P28223 whole entry): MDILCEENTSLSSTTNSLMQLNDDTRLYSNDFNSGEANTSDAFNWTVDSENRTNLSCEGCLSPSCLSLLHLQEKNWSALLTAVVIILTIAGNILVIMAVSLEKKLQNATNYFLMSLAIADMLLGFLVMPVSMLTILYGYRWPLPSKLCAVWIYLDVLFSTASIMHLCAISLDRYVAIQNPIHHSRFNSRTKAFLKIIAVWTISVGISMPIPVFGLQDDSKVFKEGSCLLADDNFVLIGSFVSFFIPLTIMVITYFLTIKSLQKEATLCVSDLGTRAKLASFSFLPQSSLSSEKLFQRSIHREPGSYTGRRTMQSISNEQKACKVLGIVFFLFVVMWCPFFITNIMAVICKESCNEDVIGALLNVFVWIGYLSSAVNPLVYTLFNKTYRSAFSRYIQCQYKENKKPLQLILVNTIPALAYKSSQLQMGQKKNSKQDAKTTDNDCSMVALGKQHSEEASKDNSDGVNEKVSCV
5-hydroxytryptamine receptor 1D, sequence (P28221 whole entry): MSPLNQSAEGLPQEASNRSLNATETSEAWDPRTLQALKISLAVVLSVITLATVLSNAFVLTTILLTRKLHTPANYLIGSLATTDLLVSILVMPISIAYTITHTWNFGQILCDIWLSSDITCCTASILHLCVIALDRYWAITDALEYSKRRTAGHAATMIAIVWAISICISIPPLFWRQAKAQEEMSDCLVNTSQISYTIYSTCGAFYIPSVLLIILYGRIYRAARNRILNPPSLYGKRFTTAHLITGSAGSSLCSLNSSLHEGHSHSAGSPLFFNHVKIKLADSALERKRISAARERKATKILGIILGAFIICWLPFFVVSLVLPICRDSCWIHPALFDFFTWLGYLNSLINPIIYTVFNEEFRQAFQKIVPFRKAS
5-hydroxytryptamine receptor 5A, sequence (P47898 whole entry): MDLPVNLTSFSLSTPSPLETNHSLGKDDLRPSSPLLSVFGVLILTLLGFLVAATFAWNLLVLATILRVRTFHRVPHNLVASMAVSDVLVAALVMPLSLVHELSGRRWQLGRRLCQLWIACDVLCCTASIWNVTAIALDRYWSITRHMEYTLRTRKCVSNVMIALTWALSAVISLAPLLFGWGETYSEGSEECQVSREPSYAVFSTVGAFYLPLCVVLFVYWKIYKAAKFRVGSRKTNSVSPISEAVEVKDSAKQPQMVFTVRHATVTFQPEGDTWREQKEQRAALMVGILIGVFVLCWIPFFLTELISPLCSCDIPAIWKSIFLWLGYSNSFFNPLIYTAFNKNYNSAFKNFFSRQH
5-hydroxytryptamine receptor 6, sequence (P50406 whole entry): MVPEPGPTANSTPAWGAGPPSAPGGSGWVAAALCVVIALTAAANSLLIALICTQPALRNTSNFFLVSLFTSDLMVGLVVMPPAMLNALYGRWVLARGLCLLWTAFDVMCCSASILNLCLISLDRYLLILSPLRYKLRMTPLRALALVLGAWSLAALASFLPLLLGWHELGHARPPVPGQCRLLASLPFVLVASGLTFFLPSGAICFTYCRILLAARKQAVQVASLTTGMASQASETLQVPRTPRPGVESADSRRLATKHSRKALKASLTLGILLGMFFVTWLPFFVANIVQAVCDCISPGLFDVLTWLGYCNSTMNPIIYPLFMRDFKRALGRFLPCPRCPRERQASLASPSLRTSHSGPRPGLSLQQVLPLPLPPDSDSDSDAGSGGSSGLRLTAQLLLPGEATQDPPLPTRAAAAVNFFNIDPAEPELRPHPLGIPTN

A Ki [1] of 0.0006 µM, a Ki [2] of 7.99 µM and a Ki [3] of 2.58 µM were found for `Nc1c(Cl)cc(-c2nn(C3CCN(CCc4ccccc4)CC3)c(=O)o2)c2c1OCCO2` [SL65.0155] in this work. The Ki [4] was 5.5 µM, the Ki [5] was > 10 µM and the Ki [6] was 1.02 µM. The Ki [7] was > 10 µM, the Ki [8] was 1.56 µM and the Ki [9] was 1.32 µM. The Ki [10] was 4.78 µM and the Ki [11] was 3.26 µM.
